Measurements as given in ChEMBL document CHEMBL4422655, “Osthenol, a prenylated coumarin, as a monoamine oxidase A inhibitor with high selectivity” (Bioorg Med Chem Lett, 2019).

Legend:
[1] = target: T1, Amine oxidase [flavin-containing] A (Mus musculus, UniProt Q64133); experiment: Inhibition of MAO-A in mouse brain mitochondrial fraction using kynuramine as substrate after 30 mins by fluorometric analysis
T1 sequence (Q64133 whole entry): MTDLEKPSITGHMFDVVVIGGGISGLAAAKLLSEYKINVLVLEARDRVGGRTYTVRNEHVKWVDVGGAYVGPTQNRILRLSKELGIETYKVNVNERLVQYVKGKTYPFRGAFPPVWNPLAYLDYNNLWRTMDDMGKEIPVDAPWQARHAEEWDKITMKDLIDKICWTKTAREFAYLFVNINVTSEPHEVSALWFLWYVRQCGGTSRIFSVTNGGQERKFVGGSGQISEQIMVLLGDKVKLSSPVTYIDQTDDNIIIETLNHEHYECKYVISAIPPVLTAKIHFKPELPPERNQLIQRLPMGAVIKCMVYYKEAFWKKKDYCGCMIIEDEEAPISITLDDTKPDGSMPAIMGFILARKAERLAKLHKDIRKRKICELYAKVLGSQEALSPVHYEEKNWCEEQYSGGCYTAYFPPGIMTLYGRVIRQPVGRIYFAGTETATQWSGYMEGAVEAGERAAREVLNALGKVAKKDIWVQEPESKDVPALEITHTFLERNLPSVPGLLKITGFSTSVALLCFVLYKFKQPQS

Homo sapiens [2] = organism: Homo sapiens; experiment: Selectivity index, ratio of IC50 for human recombinant MAO-B expressed in baculovirus infected BTI insect cells to IC50 for human recombinant MAO-A expressed in baculovirus infected BTI insect cells
[3] = target: T2, Amine oxidase [flavin-containing] A (Rattus norvegicus, UniProt P21396); experiment: Inhibition of MAO-A in Sprague-Dawley rat brain mitochondrial fraction after 10 mins in presence of [14C]5-hydroxytryptamine by liquid scintillation analysis
T2 sequence (P21396 whole entry): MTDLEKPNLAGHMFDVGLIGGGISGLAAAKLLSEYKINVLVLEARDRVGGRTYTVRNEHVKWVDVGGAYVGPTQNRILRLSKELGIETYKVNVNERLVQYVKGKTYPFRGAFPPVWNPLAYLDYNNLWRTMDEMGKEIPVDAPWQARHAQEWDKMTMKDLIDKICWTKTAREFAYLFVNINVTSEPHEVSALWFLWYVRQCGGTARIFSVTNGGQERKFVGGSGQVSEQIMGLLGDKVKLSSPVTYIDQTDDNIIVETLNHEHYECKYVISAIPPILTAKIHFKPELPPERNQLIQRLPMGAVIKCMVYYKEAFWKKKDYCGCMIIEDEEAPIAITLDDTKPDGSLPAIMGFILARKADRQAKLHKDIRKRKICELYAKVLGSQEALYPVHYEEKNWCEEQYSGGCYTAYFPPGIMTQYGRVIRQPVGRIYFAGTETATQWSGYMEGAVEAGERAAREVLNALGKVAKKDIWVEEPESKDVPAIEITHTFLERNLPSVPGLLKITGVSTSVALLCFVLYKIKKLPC

[4] = target: T3, Amine oxidase [flavin-containing] B (Homo sapiens, UniProt P27338); experiment: Inhibition of human recombinant MAO-B expressed in baculovirus infected BTI insect cells using benzylamine as substrate assessed as residual activity at 10 uM after 30 mins by spectrophotometric analysis relative to control; conditions: 0.5 h, read-out: Activity
T3 sequence (P27338 whole entry): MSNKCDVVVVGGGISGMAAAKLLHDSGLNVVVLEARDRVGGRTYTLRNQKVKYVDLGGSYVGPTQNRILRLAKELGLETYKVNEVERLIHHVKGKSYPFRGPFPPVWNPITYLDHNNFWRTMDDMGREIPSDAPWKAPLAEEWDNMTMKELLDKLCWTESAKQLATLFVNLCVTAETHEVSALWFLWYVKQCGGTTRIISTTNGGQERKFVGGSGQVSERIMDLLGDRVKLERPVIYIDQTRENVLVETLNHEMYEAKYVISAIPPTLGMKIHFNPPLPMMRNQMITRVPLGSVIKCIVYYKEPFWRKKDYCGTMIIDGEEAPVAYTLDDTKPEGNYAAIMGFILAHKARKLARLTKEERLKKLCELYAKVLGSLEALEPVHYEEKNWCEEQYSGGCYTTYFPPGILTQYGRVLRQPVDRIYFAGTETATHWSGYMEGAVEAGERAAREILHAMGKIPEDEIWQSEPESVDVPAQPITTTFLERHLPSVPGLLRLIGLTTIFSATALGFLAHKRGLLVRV

[5] = target: T3, Amine oxidase [flavin-containing] B; experiment: biochemical; type: cell-based
[6] = target: T4, Amine oxidase [flavin-containing] A (Homo sapiens, UniProt P21397); experiment: biochemical
T4 sequence (P21397 whole entry): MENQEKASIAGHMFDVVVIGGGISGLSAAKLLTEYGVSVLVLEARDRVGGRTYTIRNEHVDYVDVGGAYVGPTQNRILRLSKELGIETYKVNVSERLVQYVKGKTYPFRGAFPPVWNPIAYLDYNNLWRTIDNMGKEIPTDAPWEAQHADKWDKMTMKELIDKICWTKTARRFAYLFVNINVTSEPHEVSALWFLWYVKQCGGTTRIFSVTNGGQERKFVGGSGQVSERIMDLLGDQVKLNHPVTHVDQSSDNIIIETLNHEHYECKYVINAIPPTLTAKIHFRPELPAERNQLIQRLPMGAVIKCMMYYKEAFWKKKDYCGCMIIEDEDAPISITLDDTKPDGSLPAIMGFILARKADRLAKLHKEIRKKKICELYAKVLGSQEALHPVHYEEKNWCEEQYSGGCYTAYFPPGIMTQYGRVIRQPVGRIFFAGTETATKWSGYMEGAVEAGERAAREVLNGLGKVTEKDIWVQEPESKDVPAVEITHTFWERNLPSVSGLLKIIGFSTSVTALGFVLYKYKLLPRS

[7] = target: T4, Amine oxidase [flavin-containing] A; experiment: biochemical; remark: listed apart in the source
[8] = target: T4, Amine oxidase [flavin-containing] A; experiment: Inhibition of human recombinant MAO-A expressed in baculovirus infected BTI insect cells using kynuramine as substrate assessed as residual activity at 10 uM after 20 mins by spectrophotometric analysis relative to control; conditions: read-out: Activity
Acetylcholinesterase = Acetylcholinesterase (Electrophorus electricus, UniProt O42275); experiment: Inhibition of electric eel AChE using acetylthiocholine iodide as substrate preincubated for 15 mins followed by substrate addition by Ellman's method
Chain of Acetylcholinesterase (O42275 whole entry): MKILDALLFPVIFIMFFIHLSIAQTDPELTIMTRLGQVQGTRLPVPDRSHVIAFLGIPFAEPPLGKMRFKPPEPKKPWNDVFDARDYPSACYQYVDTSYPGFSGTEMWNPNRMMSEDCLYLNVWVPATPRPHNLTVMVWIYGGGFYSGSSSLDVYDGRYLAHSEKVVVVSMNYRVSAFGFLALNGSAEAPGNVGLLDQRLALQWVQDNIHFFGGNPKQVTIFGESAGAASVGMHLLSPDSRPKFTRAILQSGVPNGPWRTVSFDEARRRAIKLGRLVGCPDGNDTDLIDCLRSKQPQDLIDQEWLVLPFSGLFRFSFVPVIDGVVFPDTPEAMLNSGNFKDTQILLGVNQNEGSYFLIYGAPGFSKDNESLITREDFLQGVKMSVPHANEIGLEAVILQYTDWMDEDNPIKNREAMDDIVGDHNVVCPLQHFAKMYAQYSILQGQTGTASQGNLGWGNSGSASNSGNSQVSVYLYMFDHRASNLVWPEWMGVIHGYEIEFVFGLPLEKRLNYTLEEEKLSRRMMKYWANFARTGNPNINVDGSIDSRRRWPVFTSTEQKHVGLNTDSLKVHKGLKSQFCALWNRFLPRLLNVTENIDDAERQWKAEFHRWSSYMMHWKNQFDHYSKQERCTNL

[9] = target: T4, Amine oxidase [flavin-containing] A; experiment: Irreversible inhibition of human recombinant MAO-A expressed in baculovirus infected BTI insect cells assessed as residual activity at 0.01 uM incubated for 30 mins followed by dialysis using kynuramine as substrate by spectrophotometric analysis relative to control; conditions: 0.5 h, read-out: Activity
[10] = target: T4, Amine oxidase [flavin-containing] A; experiment: Irreversible inhibition of human recombinant MAO-A expressed in baculovirus infected BTI insect cells assessed as residual activity at 0.01 uM incubated for 30 mins using kynuramine as substrate by spectrophotometric analysis relative to control; conditions: 0.5 h, read-out: Activity
[11] = target: T4, Amine oxidase [flavin-containing] A; experiment: Inhibition of human recombinant MAO-A expressed in baculovirus infected BTI-TN-5B1-4 insect cells using p-tyramine as substrate after 15 mins by resorufin dye-based spectrometric analysis
[12] = target: T4, Amine oxidase [flavin-containing] A; experiment: Reversible inhibition of human recombinant MAO-A expressed in baculovirus infected BTI insect cells assessed as residual activity at 1.5 uM incubated for 30 mins using kynuramine as substrate by spectrophotometric analysis relative to control; conditions: 0.5 h, read-out: Activity
[13] = target: T4, Amine oxidase [flavin-containing] A; experiment: Reversible inhibition of human recombinant MAO-A expressed in baculovirus infected BTI insect cells assessed as residual activity at 1.5 uM incubated for 30 mins followed by dialysis using kynuramine as substrate by spectrophotometric analysis relative to control; conditions: 0.5 h, read-out: Activity
[14] = target: T4, Amine oxidase [flavin-containing] A; experiment: Inhibition of human MAO-A using kynuramine as substrate after 30 mins by spectrophotometric analysis
Homo sapiens [15] = organism: Homo sapiens; experiment: Selectivity index, ratio of IC50 for human recombinant MAO-B to IC50 for human recombinant MAO-A
[16] = target: T4, Amine oxidase [flavin-containing] A; experiment: Reversible inhibition of human recombinant MAO-A expressed in baculovirus infected BTI insect cells assessed as residual activity at 2 uM incubated for 30 mins using kynuramine as substrate by spectrophotometric analysis relative to control; conditions: 0.5 h, read-out: Activity
[17] = target: T4, Amine oxidase [flavin-containing] A; experiment: Reversible inhibition of human recombinant MAO-A expressed in baculovirus infected BTI insect cells assessed as residual activity at 2 uM incubated for 30 mins followed by dialysis using kynuramine as substrate by spectrophotometric analysis relative to control; conditions: 0.5 h, read-out: Activity

| Compound | Ratio IC50 (Homo sapiens [2]) | activity at 10 µM [4] | IC50 [5] | IC50 [7] | activity at 10 µM [8] | IC50 (Acetylcholinesterase) | further results |
| --- | --- | --- | --- | --- | --- | --- | --- |
| C=C(C)C(O)CC/C(C)=C/COc1ccc2ccc(=O)oc2c1 (stereo not drawn) | – | – | – | – | – | – | IC50 [1]: 1300 nM |
| O=c1ccc2ccc3occc3c2o1 [ANGELICIN] | 3.1 | 27.2% | 2.73 µM | 880 nM | 12% | 25.4 µM | IC50 [3]: 9 µM; Ki [6]: 460 nM |
| O=c1ccc2c(ccc3ccoc32)o1 [BAKUCHICIN] | 3.1 | 37.8% | 5.44 µM | 1780 nM | 18.6% | 35.7 µM | – |
| C#CCN(C)CCCOc1ccc(Cl)cc1Cl [CLORGILINE] | – | – | – | – | – | – | activity at 0.01 µM [9]: 23.3%; activity at 0.01 µM [10]: 20.4% |
| Oc1ccc(/C=C/c2cc(O)cc3c2[C@@H](c2cc(O)cc(O)c2)[C@H](c2ccc(O)cc2)O3)cc1 [EPSILON-VINIFERIN] | – | – | – | – | – | – | IC50 [11]: 19.6 µM |
| CC(C)=CCOc1c2ccoc2cc2oc(=O)ccc12 [ISOIMPERATORIN] | – | 78.3% | > 60 µM | > 20000 nM | 76.2% | 25.6 µM | – |
| COc1ccc(-c2oc3cc(O)cc(O)c3c(=O)c2O)cc1 [KAEMPFERIDE] | 0.89 | – | – | 190 nM | – | – | – |
| CC(C)=CCc1c(O)ccc2ccc(=O)oc12 [OSTHENOL] | > 81.1 | 84.7% | > 60 µM | 740 nM | 9.9% | 25.3 µM | activity at 1.5 µM [12]: 23.7%; activity at 1.5 µM [13]: 90.7%; Ki [6]: 260 nM |
| O=c1ccc2cc3ccoc3cc2o1 [PSORALEN] | – | 78.3% | > 60 µM | > 20000 nM | 71% | 29.5 µM | – |
| COc1cc(O)c2c(=O)c(O)c(-c3ccc(O)cc3)oc2c1 [RHAMNOCITRIN] | – | – | – | – | – | – | IC50 [14]: 51 nM; Ratio IC50 (Homo sapiens [15]): 58.2 |
| COc1cc2ccc(=O)oc2cc1O [SCOPOLETIN] | – | 97.7% | > 60 µM | > 20000 nM | 97% | 35.8 µM | – |
| Cc1cccc(N2CC(CO)OC2=O)c1 (stereo not drawn) [TOLOXATONE] | – | – | – | – | – | – | activity at 2 µM [16]: 28.4%; activity at 2 µM [17]: 88.6% |
